Experimental findings from ChEMBL document CHEMBL1201862, “PubChem BioAssay data set” (2004) are described below.

Calls of active or inactive are those of the source.

Test [1] can be described thus: Trypanosoma cruzi growth suppression in host cells – NIH3T3 host cells, beta-gal luminescence, confirmation (AID 2044).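 Also: intracellular parasites grown in NIH/3T3 mouse fibroblasts as host cells; luminescent beta-galactosidase reporter signal from transgenic T. cruzi replicating inside host cells; inhibitors lower the luminescence signal.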 In kind it is functional, cell-based.
The nature of test [2]: NIH3T3 cell viability loss – ATP luminescence, mouse fibroblasts, counter-screen, dose response (AID 2010).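 Also: cells exposed to compound for about 90 hours before reading.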 In kind it is functional, cell-based.
The target in test [3] is T1, Short transient receptor potential channel 4 (Mus musculus, UniProt Q9QUQ5).
T1 sequence (Q9QUQ5 whole entry): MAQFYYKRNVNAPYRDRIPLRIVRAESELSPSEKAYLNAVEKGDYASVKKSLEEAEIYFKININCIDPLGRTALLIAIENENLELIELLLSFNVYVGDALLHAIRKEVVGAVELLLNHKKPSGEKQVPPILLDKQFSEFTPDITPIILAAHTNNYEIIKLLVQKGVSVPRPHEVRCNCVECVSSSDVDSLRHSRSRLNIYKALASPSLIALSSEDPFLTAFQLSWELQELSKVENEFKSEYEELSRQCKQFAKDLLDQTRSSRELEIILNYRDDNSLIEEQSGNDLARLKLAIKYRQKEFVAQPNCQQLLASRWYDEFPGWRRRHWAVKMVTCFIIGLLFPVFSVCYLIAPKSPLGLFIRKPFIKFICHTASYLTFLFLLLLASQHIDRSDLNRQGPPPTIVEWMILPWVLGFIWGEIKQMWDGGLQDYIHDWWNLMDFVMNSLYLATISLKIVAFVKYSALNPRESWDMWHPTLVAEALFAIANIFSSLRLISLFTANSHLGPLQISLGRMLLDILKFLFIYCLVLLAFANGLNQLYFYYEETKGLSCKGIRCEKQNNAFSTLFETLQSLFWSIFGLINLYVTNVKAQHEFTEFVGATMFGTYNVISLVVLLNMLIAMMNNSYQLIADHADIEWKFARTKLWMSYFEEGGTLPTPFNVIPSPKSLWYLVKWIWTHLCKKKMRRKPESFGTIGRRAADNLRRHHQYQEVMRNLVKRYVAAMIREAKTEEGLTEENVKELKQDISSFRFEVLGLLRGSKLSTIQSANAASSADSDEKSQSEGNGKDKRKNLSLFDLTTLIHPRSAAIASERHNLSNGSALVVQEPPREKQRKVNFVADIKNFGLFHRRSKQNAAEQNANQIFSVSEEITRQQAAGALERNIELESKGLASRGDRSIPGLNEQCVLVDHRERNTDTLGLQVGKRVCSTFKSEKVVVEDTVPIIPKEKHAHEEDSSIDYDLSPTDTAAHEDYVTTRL
Nature of the test: block of DAMGO-driven TRPC4 calcium entry – cell-based, HEK293 TRPC4/mu-opioid, Fluo-4 calcium, dose response (AID 434942).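 Also: potency of inhibitors blocking the TRPC4 calcium response.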 In kind it is functional.

Test [4] in a line: cells.
The target in test [5] is Aryl hydrocarbon receptor (Homo sapiens, UniProt P35869). Kind of test: Luminescence-based cell-based high throughput dose response assay for activators of the Aryl Hydrocarbon Receptor (AHR). [Related pubchem assays: 2796 (Primary screen (AHR activators in singlicate)), 2845 (Confirmation screen (AHR activators in triplicate)), 434939 (Counterscreen (PXR activators in triplicate)), 2804 (Summary (AHR activators))]. It is filed as ADME.

Test [6] addresses Heat shock protein HSP 90-alpha (Homo sapiens, UniProt P07900). Kind of test: Luminescence-based dose response biochemical high throughput screening assay for inhibitors of the Heat Shock Protein 90 (HSP90). [Related pubchem assays: 1831 (Summary AID.), 1846 (Confirmation screen.), 1789 (Primary screen.)].
Test [7] concerns Danio rerio. Nature of the test: In Vivo Angiogenesis Dose-Response Confirmation. [Related pubchem assays: 732 (Assay preceding this confirmatory assay.)]. It is filed as functional, organism-based.
A short description of test [8]: CellTiter-Glo luminescence survival assay, SW480 colon tumor line, concentration-response curve, half-maximal inhibitory concentration (AID 1117338). It is filed as functional. In general terms: ATP-based viability assays read luminescence as a measure of living cells.
Test [9] is described as follows: RKO cell viability reduction, dose response, CellTiter-Glo luminescence (AID 1117322). It is filed as functional.
Test [10] can be described thus: cytotoxicity toward HCT116 cells – cell-based, CellTiter-Glo luminescence, IC50, dose response (AID 1117332). It is filed as functional. The note with it: HCT-116.
Test [11] in a line: SNU-C1 cell viability reduction, dose response, CellTiter-Glo luminescence (AID 1117323). It is filed as functional, cell-based.
Test [12] can be described thus: cytotoxicity toward Colo320 cells – cell-based, CellTiter-Glo luminescence, IC50, dose response (AID 1117334). The note with it: COLO 320. It is filed as functional.
A short description of test [13]: cytotoxicity toward HT-29 cells – cell-based, CellTiter-Glo luminescence, IC50, dose response (AID 1117330). It is filed as functional.
Test [14] in a line: Reduced DLD-1 viability, concentration-response, CellTiter-Glo luminescence (AID 1117352). It is filed as functional.
The nature of test [15]: HCT116 cell viability decrease, GSK3B pretreatment – CellTiter-Glo, IC50, dose response (AID 1117339). It is filed as functional. The note with it: HCT-116.
A short description of test [16]: HPDE-C7 pancreatic duct cell viability loss – fluorescence, HTS (AID 430). The note with it: Homo sapiens. In kind it is functional, cell-based.
Test [17] can be described thus: viability loss of HPDE-C7K cells – cell-based, fluorescence, HTS, primary screen (AID 431). The note with it: Homo sapiens. It is filed as functional.
Test [18] is described as follows: growth inhibition of yeast DHODH-expressing 3D7 parasites – SYBR Green, dry powder samples, dose response (AID 1159570).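 Also: parasite growth measured after 72 hours of compound exposure.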 In kind it is functional, cell-based.
Test [19] in a line: toxicity to human HepG2 hepatoma cells – cell-based, plate reader, dry powder samples, cytotoxicity control, dose response (AID 1159569).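 Also: inhibitor potency with signal falling toward the positive control level.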 It is filed as functional.
The nature of test [20]: P. falciparum Dd2 growth inhibitors, dose response, SYBR Green, cherry-picked samples (AID 1159567). It is filed as functional, cell-based.
Test [21] in a line: Dd2 malaria parasite growth inhibition potency – SYBR Green, dry powder samples, dose response (AID 1159566).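 Also: potency for growth inhibition with lower SYBR green DNA signal.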 It is filed as functional, cell-based.
Test [22] is described as follows: toxicity to human hepatoma HepG2 cells – cell-based, cherry-picked samples, cytotoxicity control, dose response (AID 1159577). In kind it is functional.
The nature of test [23]: growth inhibition of PfATP4-mutant resistant parasites – NITD609-resistant line, SYBR Green, dry powder, dose response (AID 1159571).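 Also: parasites synchronized at ring stage by sorbitol before testing.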 It is filed as functional, cell-based.
Test [24] is described as follows: Luminescence Cell-Based Dose Retest to Confirm Inhibitors of Cancer Stem Cells. [Related pubchem assays (depositor defined):AID2717, AID2721]. It is filed as functional. The note with it: Homo sapiens.
A short description of test [25]: Luminescence-based cell-based high throughput dose response assay to identify activators of the DAF-12 from the parasite S. stercoralis (ssDAF-12). In kind it is functional.
Test [26] has as its target Cytochrome P450 3A4 (Homo sapiens, UniProt P08684).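 Also: CYP3A4 tested as one member of a cytochrome P450 panel screen.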

Sequence of Aryl hydrocarbon receptor (P35869 whole entry): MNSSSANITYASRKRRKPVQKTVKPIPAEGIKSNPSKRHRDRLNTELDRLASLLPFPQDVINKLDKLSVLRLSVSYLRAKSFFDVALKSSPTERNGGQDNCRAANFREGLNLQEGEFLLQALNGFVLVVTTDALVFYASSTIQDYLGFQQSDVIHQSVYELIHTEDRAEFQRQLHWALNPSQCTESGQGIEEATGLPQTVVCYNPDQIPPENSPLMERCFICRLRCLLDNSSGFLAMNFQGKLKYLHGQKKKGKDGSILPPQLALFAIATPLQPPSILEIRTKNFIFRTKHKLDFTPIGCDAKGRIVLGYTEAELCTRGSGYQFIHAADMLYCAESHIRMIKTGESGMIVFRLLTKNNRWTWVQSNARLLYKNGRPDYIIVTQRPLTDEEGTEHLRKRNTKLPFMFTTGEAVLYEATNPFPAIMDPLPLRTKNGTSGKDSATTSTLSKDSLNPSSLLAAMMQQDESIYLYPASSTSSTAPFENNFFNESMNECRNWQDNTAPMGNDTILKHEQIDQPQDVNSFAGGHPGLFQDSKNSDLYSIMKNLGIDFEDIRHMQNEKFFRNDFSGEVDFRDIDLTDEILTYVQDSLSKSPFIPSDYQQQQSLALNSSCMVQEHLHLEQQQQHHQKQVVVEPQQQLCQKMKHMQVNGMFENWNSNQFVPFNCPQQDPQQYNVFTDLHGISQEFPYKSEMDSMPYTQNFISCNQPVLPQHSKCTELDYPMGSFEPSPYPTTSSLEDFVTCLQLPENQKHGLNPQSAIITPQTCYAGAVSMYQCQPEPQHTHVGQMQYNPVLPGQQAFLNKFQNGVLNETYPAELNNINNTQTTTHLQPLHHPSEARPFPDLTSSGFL
Sequence of Cytochrome P450 3A4 (P08684 whole entry): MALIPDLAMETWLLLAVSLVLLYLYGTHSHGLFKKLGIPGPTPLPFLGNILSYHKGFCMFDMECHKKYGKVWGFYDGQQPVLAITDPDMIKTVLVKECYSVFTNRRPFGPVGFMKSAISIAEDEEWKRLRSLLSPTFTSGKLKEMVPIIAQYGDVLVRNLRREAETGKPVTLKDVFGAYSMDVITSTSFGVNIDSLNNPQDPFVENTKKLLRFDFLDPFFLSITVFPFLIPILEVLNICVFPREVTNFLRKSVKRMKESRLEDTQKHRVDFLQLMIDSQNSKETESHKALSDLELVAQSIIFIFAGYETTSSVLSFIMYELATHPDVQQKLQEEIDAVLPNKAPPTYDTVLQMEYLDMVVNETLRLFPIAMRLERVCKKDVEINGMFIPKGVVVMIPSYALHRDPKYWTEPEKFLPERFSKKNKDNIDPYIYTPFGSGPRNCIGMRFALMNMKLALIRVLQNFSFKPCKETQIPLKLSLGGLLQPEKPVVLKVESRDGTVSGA

Broadly, the EC50 is the midpoint of the concentration-response curve. Regarding `COc1cc(CN(C)CC2CCCN(CCc3ccccc3F)C2)cc(Cl)c1OC` (centres undefined), the 50% effective concentration (EC50) is < 0.1 µM (active) in [1], 11.1 µM (active) in test [2], 3.35 µM (active) in test [3] and 0.263 µM (active) in [4].
`Cc1ccc(C)c2sc(NC(=O)C3CC3)nc12`: the concentration giving a half-maximal response (EC50) in test [5] was 4.22 µM (active).
A word on the IC50: it is the midpoint of a concentration-inhibition curve. On to `COC(=O)c1ccc(N/C=C/C(=O)c2ccccc2)cc1`, for which the IC50 in test [6] was 3.73 µM (active).
Turning to `O=C(CN1CCOCC1)Nc1nc2ccc([N+](=O)[O-])cc2s1`, in test [5], the 50% effective concentration (EC50) was 2.61 µM (active).
Consider `Cc1cccc2c1NC(=O)/C2=C1\Nc2ccccc2\C1=N/O`, for which, in [7], the IC50 was 0.68 µM (active).
With `COc1ccc(CN2CCN(C(c3ccc(F)cc3)c3ccc(F)cc3)CC2)c(OC)c1OC`, the IC50 in [8] was 3.32 µM (active); in test [9], 3.7 µM (active); in test [10] it was 1.7 µM (active); in test [11], 0.443 µM (active); in [12], 2.82 µM (active); in [13] it was 2.93 µM (active). The IC50 in test [14] is 3.13 µM (active); in test [15] it was 2.77 µM (active).
In the case of `Cc1[nH]n(-c2ccccc2)c(=O)c1N=Nc1ccc(C(N)=O)cc1`, the half-maximal inhibitory concentration (IC50) in [6] is 20.9 µM (not active).
As to `CCN1C(=O)CS/C1=N/C1C2CC3CC(C2)CC1C3` (centres undefined), the EC50 in test [16] is > 20 µM (not active); in [17], 11.4 µM (active).
The term AC50 denotes the concentration giving half of the maximal activity seen. On to `COc1ccc(-c2ccc([C@H]3[C@@H]4CN(S(=O)(=O)c5cccc(C)c5)C[C@H]3N4)cc2)cc1`, for which the AC50 in [18] was 1.48 µM (active); in [19], 20.8 µM (active); in test [20] it was 1.99 µM (active); in test [21], 2 µM (active); in [22] it was > 39 µM (inactive); in [23], 1.86 µM (active).
As to `O=c1c2ccccc2nc2n1CCc1c-2[nH]c2ccccc12` [RUTAECARPINE], the half-inhibitory concentration (IC50) is 25.5 µM (not active) in test [7] and > 67.6 µM (inactive) in [25]. The AC50 in test [24] was 25.1 µM (active); in test [26] it was 3.98 µM (inconclusive).
